From patent US20050176649A1, “Iap binding peptides and assays for identifying compounds that bind iap” (priority 2001, published 2005)
Residues, ends and D or L forms follow the SMILES beside them.

Columns and labels:
[1] = target: T1, BIR3 domain of XIAP (recombinant XIAP-BIR3, residues 238-358) (Homo sapiens, UniProt P98170); experiment: Fluorescence-based competition assay of tetrapeptide libraries (Example 1); assay type: binding, mammalian
T1 construct: Recombinant XIAP-BIR3 (residues 238-358); GST (N, cleaved yes); made in house; host or cells: E. coli
Source text: Expression and Purification of BIR3. […] The soluble fraction of the GST-BIR3 in the E. coli lysate was purified over a glutathione sepharose column, and further purified by anion exchange chromatography (Mono-Q, Amersham Biosciences). The fusion protein was cleaved by thrombin, and the GST portion was removed by the glutathione sepharose column. The BIR3 protein was further purified over a gel filtration column (Superdex 30, Amersham Biosciences).
Fluorescence Experiments. Luminescence spectra were recorded using a Photon Technologies, Inc. fluorometer with a Xe arc lamp and a PMT detector. […] The buffer used in all of the fluorescence experiments was 50 mM potassium phosphate, 100 mM NaCl, 2 mM 1,4-dithio-DL-threitol (DTT), pH 7.
Assay of Tetrapeptide Libraries. The samples were prepared in a 96 well plate lined with glass tubes, to prevent adsorption of the dye to plastic. The plate was stored on ice in the dark between measurements. […] 390 μL of this stock solution were added to 50 wells of the 96 well plate. 50 μL of the test tetrapeptide solutions were added and mixed immediately prior to taking the emission spectra. The final solutions were 5 μM in both badan and BIR3, and approximately 20-30 μM in the tetrapeptide solutions. […] 50 μL of water was added to these wells, again as controls, to determine the intensity of the unbound dye.
The binding of various tetrapeptide mimics to the BIR3 domain of XIAP was determined using a fluorescence-based competition assay. The assay is based on an environment-sensitive fluorogenic dye molecule, badan. Badan is a dye whose sensitivity to environmental changes has previously been used to probe protein binding interactions. […] As the dye is displaced from the binding pocket by the test molecule, the emission shifts back towards the aquated spectrum.

BIR3 domain of XIAP = target: T2, BIR3 domain of XIAP (Homo sapiens, UniProt P98170); experiment: Fluorescence displacement assay: AVPC-badan displaced from BIR3 by test tetrapeptide (typical assay, Tables 1 and 2); assay type: binding, mammalian; settings: for K: binding (equilibrium) constant for displacement of AVP-dye, position-4 library, 5 μM dye and protein, larger = greater affinity; for Intensity (470 nm): emission intensity of AVPC-badan with BIR3 and test tetrapeptide, excitation 387 nm, lower = more dye displaced; for Fraction free: fraction of AVPC-badan free (displaced from BIR3), from intensity at 470 nm
T2 construct: Recombinant XIAP-BIR3 (residues 238-358); GST (N, cleaved yes); made in house; host or cells: E. coli
Source text: The ability to quickly assay small molecules for their effectiveness in disrupting protein-protein interactions is critical to the development of viable drug candidates. One aspect of the present invention comprises an assay to test the binding affinity of a library of tetrapeptide molecules for the BIR3 domain of an inhibitor of apoptosis protein (LAP), particularly the mammalian XIAP. The assay is based on a detectable label, preferably a fluorogenic dye molecule. In preferred embodiments, the fluorophore is attached to a tripeptide, AVP, whose sequence matches the N-terminal three residues of Smac. The general structure of this molecule, therefore, is AVP[X], wherein X is the fluorophore. The molecule is referred to herein as an “AVP-dye”. The AVP-dye packs into the groove of the BIR3, causing a large shift in emission maximum and intensity when the environment of the dye changes from water to the hydrophobic pocket of the protein. If a molecule (e.g. the native Smac protein or a tetrapeptide mimic) displaces the dye, then emission will shift back to the spectrum observed in water. Since the emission intensity is related to the binding of the tetrapeptide, the intensity can be used to estimate the equilibrium constant, K, for displacement of the AVP-dye by the tetrapeptide. The larger the equilibrium constant, the greater affinity the tetrapeptide has for the BIR3.
The aforementioned AVP-dye is used in an assay of test compounds that may, like the Smac tetrapeptide AVPI, bind to the BIR3 domain of XIAP, thereby relieving XIAP-mediated suppression of apoptosis. This is a high-throughput, cell-free assay, that is assembled as follows. A protein comprising the BIR3 domain of an IAP is placed in an assay medium comprising a suitable buffer, as described above. Preferably, this is a recombinant protein comprising the BIR3 domain, but a full IAP protein also may be used. An aliquot of the AVP-dye is added to the reaction mixture, in the presence of the test compound. Controls comprise the BIR3 and the dye in the absence of the test compound and, optionally, BIR3 and the dye in the presence of the naturally occurring tetrapeptide, AVPI. […] Alternatively, a emission spectrum is measured at the selected excitation wavelength. In one type of measurement, the test compound is added and an emission spectrum is measured by scanning from, e.g., 460-480 nm. In another type of measurement, the emission intensity at a particular wavelength, e.g., 470 nm, is measured. […] Thus, the binding affinity of the test compound may be calculated as a function of its ability to displace the dye from the BIR3 domain, according to the following calculation: [formula]
Stock solution of badan, BIR3, and buffer were mixed: 2.5 ml of badan, 1.75 ml BIR3, and 15.25 ml of buffer were mixed in a glass vial which had been chilled to 4° C. Added 390 μL of the stock solution to 50 wells in the pre-chilled 96 well plate (wells A1-E2).
Stock solution of badan and buffer were mixed: 150 μL badan and 1020 μL of buffer were mixed in a small glass vial (also chilled) and added to 3 wells on the plate in 390 μL aliquots (F1-F3).
The 96 well plate was stored over ice in an insulated bucket while the emission spectra of the samples were taken. Fifty μL of the appropriate test solution (or water, for the control experiments) was added with a micropipet, the solution mixed with a Pasteur pipet before adding the sample to the fluorescence cuvette. While one sample was being scanned, the cuvette from the previous scan was washed with EtOH and then next sample was prepared.

[2] = target: Recombinant XIAP-BIR3 (residues 238-358) (UniProt P98170); experiment: fluorescence competition, displacement of AVPC-badan from BIR3
[3] = target: T3, Recombinant XIAP-BIR3 (residues 238-358) (UniProt P98170 238-358); experiment: as above
T3 construct: also called BIR3 domain of XIAP; BIR3 protein
T3 sequence (P98170 238-358 limits assumed): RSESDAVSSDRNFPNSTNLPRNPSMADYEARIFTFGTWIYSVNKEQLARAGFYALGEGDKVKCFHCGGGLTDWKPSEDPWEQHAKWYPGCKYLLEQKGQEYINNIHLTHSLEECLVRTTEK
Description: The samples were prepared in a 96 well plate lined with glass tubes, to prevent adsorption of the dye to plastic. The plate was stored on ice in the dark between measurements. A small volume cuvette, with a path length of 2 mm, was used to collect the emission spectra. […] 390 μL of this stock solution were added to 50 wells of the 96 well plate. 50 μL of the test tetrapeptide solutions were added and mixed immediately prior to taking the emission spectra. […] 50 μL of water was added to these wells, again as controls, to determine the intensity of the unbound dye.
The binding of various tetrapeptide mimics to the BIR3 domain of XIAP was determined using a fluorescence-based competition assay. […] As the dye is displaced from the binding pocket by the test molecule, the emission shifts back towards the aquated spectrum.

T1 sequence (P98170 238-358): as the sequence (P98170 238-358 limits assumed) above
T2 sequence (P98170 238-358): as the sequence (P98170 238-358 limits assumed) above
Recombinant XIAP-BIR3 (residues 238-358) (UniProt P98170), sequence (P98170 238-358 limits assumed): as above

Row | Molecule | Kd [1] | K (BIR3 domain of XIAP) | Kd [3] | other results
1 | CC(C)[C@H](NC(=O)[C@H](C)N)C(=O)N1CCC[C@H]1C(=O)NCC(N)=O [AVPG] (H-AVPG-NH2; N-terminus and C-terminus assumed) | 4700 nM | 0.08948 |  | 
2 | AbuVPI (peptide) |  |  |  | Fraction free [2]: 0.887; Intensity (470 nm) [2]: 34800
3 | AQPI (Synthetic tetrapeptide) |  |  | 940 nM | 
4 | AFPI (Synthetic tetrapeptide) |  |  | 790 nM | 
5 | AKPI (Synthetic tetrapeptide) |  |  | 570 nM | 
6 | ALPI (Synthetic tetrapeptide) |  |  | 290 nM | 
7 | ACPI (Synthetic tetrapeptide) |  |  | 650 nM | 
8 | AIPI (Synthetic tetrapeptide) |  |  | 390 nM | 
9 | AMPI (Synthetic tetrapeptide) |  |  | 730 nM | 

Further lines, with some results ahead:

Row | Kd [1] | K (BIR3 domain of XIAP) | Kd [3] | Molecule | other results
10 | 7300 nM | 0.07521 |  | CC(C)[C@H](NC(=O)[C@H](C)N)C(=O)N1CCC[C@H]1C(=O)N[C@@H](Cc1c[nH]cn1)C(N)=O [AVPH] (H-AVPH-NH2; N-terminus and C-terminus assumed) | 
11 | 28000 nM | 0.00702 |  | CC(C)[C@H](NC(=O)[C@H](C)N)C(=O)N1CCC[C@H]1C(=O)N[C@@H](CCCCN)C(N)=O [AVPK] (H-AVPK-NH2; N-terminus and C-terminus assumed) | 
12 | 490 nM | 0.3423 |  | CC(C)C[C@H](NC(=O)[C@@H]1CCCN1C(=O)[C@@H](NC(=O)[C@H](C)N)C(C)C)C(N)=O [AVPL] (H-AVPL-NH2; N-terminus and C-terminus assumed) | 
13 | 2300 nM | 0.05288 |  | CSCC[C@H](NC(=O)[C@@H]1CCCN1C(=O)[C@@H](NC(=O)[C@H](C)N)C(C)C)C(N)=O [AVPM] (H-AVPM-NH2; N-terminus and C-terminus assumed) | 
14 | 5700 nM | 0.01069 |  | CC(C)[C@H](NC(=O)[C@H](C)N)C(=O)N1CCC[C@H]1C(=O)N1CCC[C@H]1C(N)=O [AVPP] (H-AVPP-NH2; N-terminus and C-terminus assumed) | 
15 | 4400 nM | 0.01304 |  | CC(C)[C@H](NC(=O)[C@H](C)N)C(=O)N1CCC[C@H]1C(=O)N[C@@H](CO)C(N)=O [AVPS] (H-AVPS-NH2; N-terminus and C-terminus assumed) | 
16 | 2100 nM | 0.143 |  | CC(C)[C@H](NC(=O)[C@H](C)N)C(=O)N1CCC[C@H]1C(=O)N[C@H](C(N)=O)[C@@H](C)O [AVPT] (H-AVPT-NH2; N-terminus and C-terminus assumed) | 
17 | 1500 nM | 0.1011 |  | CC(C)[C@H](NC(=O)[C@@H]1CCCN1C(=O)[C@@H](NC(=O)[C@H](C)N)C(C)C)C(N)=O [AVPV] (H-AVPV-NH2; N-terminus and C-terminus assumed) | 
18 | 110 nM | 1.0817 |  | CC(C)[C@H](NC(=O)[C@H](C)N)C(=O)N1CCC[C@H]1C(=O)N[C@@H](Cc1c[nH]c2ccccc12)C(N)=O [AVPW] (H-AVPW-NH2; N-terminus and C-terminus assumed) | Intensity (470 nm) (BIR3 domain of XIAP): 23435; Fraction free (BIR3 domain of XIAP): 0.9418
19 | 300 nM | 1.1692 |  | CC(C)[C@H](NC(=O)[C@H](C)N)C(=O)N1CCC[C@H]1C(=O)N[C@@H](Cc1ccc(O)cc1)C(N)=O [AVPY] (H-AVPY-NH2; N-terminus and C-terminus assumed) | Intensity (470 nm) (BIR3 domain of XIAP): 39093; Fraction free (BIR3 domain of XIAP): 0.8657
20 |  |  | 590 nM | AYPI (Synthetic tetrapeptide) | 
